Assays:
Hb-S = Hb-S (Homo sapiens, UniProt P68871+P69905, E7V); experiment: Oxygen-Affinity Assay (whole Hb-S blood, tonometer); format: cell-based; set-up: key: ΔP50 in mm Hg (oxygen tension at 50% saturation, control vs treated); conditions: 37° C., difference control vs treated, negative = toward normal Hb-S oxygen affinity, oxygen partial pressure plotted in mm Hg
Experimental: The compounds described herein were tested in an "Oxygen-Affinity Assay" to measure the ability of the compound to influence the Hb-S oxygen affinity. There is a relationship between oxygen binding and Hb-S gelation and thus a measure of oxygen affinity is an index of Hb-S aggregation within the red blood cell. Hemoglobin S polymers decrease the overall oxygen affinity. Thus a return to normal of Hb-S oxygen affinity is a measure of decreased gelation. For measurements of oxygen equilibria whole Hb-S blood was equilibrated in a tonometer at 37° C. and measurements were made in the presence of a 5 millimolar (mM) or 10 mM concentration of the test compound. The whole blood pH, oxygen tension, and blood PO2 were measured. The percentage of oxygen saturation was plotted against the partial pressure of oxygen (mm Hg). The P50 value (oxygen tension at 50% saturation) was determined for each control and treated whole blood sample and the difference (Δ P50) between the control and treated whole blood sample noted. As used herein, a negative Δ P50 represents a change toward a normal Hb-S oxygen affinity and thus is a measure of the test compound's ability to inhibit the sickling of sickle erythrocytes.

[1] = compound and its pharmaceutically-acceptable salts; cited from earlier work
[2] = compound and its pharmaceutically-acceptable salts; cited from earlier work; remark: listed apart in the source
[3] = compound and its pharmaceutically-acceptable salts; cited from earlier work; remark: listed apart in the source
[4] = compound and its pharmaceutically-acceptable salts; cited from earlier work; remark: listed apart in the source
[5] = normal adults, single dosages 25 to 250 milligrams, cited from earlier work

Row | Compound | Δ P50 (Hb-S; 5 mM test compound) | Δ P50 (Hb-S; 10 mM test compound) | further results
1 | Clc1ccc(OCC2=NCCN2)cc1Cl [fenmetozole, 2-((3,4-Dichlorophenoxy)methyl)-2-imidazoline] | – | – | barbiturate antagonist activity [1]: barbiturate antagonist activity; alcohol antagonist activity [2]: alcohol antagonist activity; antidepressant activity [3]: antidepressant; activity against minimal brain dysfunction in children [4]: activity against minimal brain dysfunction in children
2 | Cl.Clc1ccc(NCC2=NCCN2)cc1Cl [Example 1, 2-((3,4-dichloroanilino)methyl)-2-imidazoline hydrochloride] | -9 | -12.6 | –
3 | Cl.Clc1ccc(OCC2=NCCN2)cc1Cl [Example 2, 2-((3,4-dichlorophenoxy)methyl)-2-imidazoline hydrochloride] | -8 | -8.0 | blood pressure ([5]; at high dose level): increased blood pressure; heart rate ([5]; at high dose level): decreased heart rate; ill effects [5]: no ill effects other than a "tingling sensation" on the skin reported by some of the subjects

Now from value to compound, other results behind:

Row | Δ P50 (Hb-S; 5 mM test compound) | Δ P50 (Hb-S; 10 mM test compound) | Compound | further results
4 | 0 | -13.0 | Cl.Oc1ccc(SCC2=NCCN2)cc1Cl [Example 3, 2-Chloro-4-(((2-imidazolin-2-yl)methyl)thio)-phenol Hydrochloride] | –
5 | -9 | -10.0 | Cl.Cl.Nc1ccc(SCC2=NCCN2)cc1Cl [Example 4, 2-(((4-Amino-3-chlorophenyl)thio)methyl)-2-imidazoline Dihydrochloride] | –

Source: patent US4344958A, “Method of inhibiting sickling of sickle erythrocytes using substituted-2-imidazolines” (priority 1980, dated 1982)
